For one assay, the system named is conscious rats. In words: Acute infusion of L-NAME during chronic infusion of purified porcine RLX. In kind it is in vivo, rat. The method, then:
At least 7 days after the implantation of vascular and bladder catheters, osmotic minipumps containing either porcine RLX (4 μg/hour) or vehicle (Ringer's solution) were implanted in intact, female rats (n=7 and 6 rats, respectively). Renal function and MAP were measured on day 5 of relaxin infusion (three 30-minute urine and midpoint blood collections). Next, an infusion of L-NAME (2 μg/minute, a substrate competitive inhibitor of NO synthase) was administered intravenously (i.v.) by infusion pump (Model 200, KD Scientific, Boston, Mass.). Four 1-hour urine collections with midpoint blood samples were collected for the assessment of GFR, ERPF, and ERVR during the L-NAME administration. Identical procedures were performed on additional animals chronically administered porcine RLX (n=5) or vehicle (n=5), except that ANG II (3 ng/minute) was infused rather than L-NAME. Finally, another four, age-matched control rats were administered Ringer's solution instead of either L-NAME or ANG II on day 5 of porcine RLX infusion.
MAP, GFR, ERPF, and ERVR were measured at time zero (baseline), and at 60, 120, 180, and 240 minutes after administering L-NAME and either RLX or vehicle alone. Values represent the mean±SEM. L-NAME (Nω-nitro-L-arginine methyl ester) was infused at 2 μg/minute intravenously, and relaxin was administered at 4 μg/hour by osmotic minipump subcutaneously. There were 7 and 6 rats, respectively, in the RLX and vehicle groups. An asterisk denotes p<0.05; the symbol H denotes p<0.05 for RLX vs. vehicle.

For assay [1], the system named is Rat aortic adventitial fibroblasts. The experiment in a line: Collagen and fibronectin expression by adventitial fibroblasts. In kind it is cell-based. The method, then: Aortic adventitial fibroblasts from normal adult Sprague/Dawley rats were explanted by carefully dissecting the adventitia away from the media and culturing 1 mm^3 pieces in Dulbecco's modified Eagles Medium (DMEM), plus 10% bovine fetal calf serum. When cultures were confluent, fibroblasts were dispersed with trypsin and passaged once prior to use in experiments. Fibroblasts were seeded at 10^5 cells/cm^2 in DMEM+10% FBS in 48-well plates for experiments and assayed for collagen and fibronectin expression, as previously described (Unemori et al. (1996) J. Clin. Invest. 98:2739-2745). […] Half of the cultures were also treated simultaneously with 10 ng/ml of rhRlx. Proteins were biosynthetically labeled with ^3H-proline (25 μCi/ml) (Amersham Corp., Arlington Heights, Ill.), in the presence of ascorbate (50 μg/ml) and β-aminopropionitrile (80 μg/ml), and conditioned media collected 24 hours later. Media were electrophoresed on SDS-PAGE, and the density of collagen and fibronectin bands was determined by densitometric scanning using a digital imaging system (Alpha Innotech Corp, San Leandro, Calif.).

The test system of a further assay is db/db mice. In words: Full thickness wound healing in db/db mice. In kind it is in vivo, mouse. Conditions: PDGF 5 μg/wound/day for 5 days. Here is the method: To determine whether rhRlx would improve healing in this model of impaired healing, standardized full thickness (1.5 cm×1.5 cm) wounds were made on the back of db/db mice (Jackson Laboratories, Bar Harbor, Me.). Mice were treated continuously for 21 days with rhRlx via a subcutaneously implanted Alzet pump at a dose of either 0.1 mg/kg/day or 0.2 mg/kg/day. Wound areas were measured in the course of the study. Healing is presented as wound area on day 14 relative to the original size of the wound on day 0 and is calculated as: % of original wound area=[Area on day 14/area on day 0]×100. […] Wound closure was expressed as “% of original wound area.” There were 8-20 animals per group. Wound closure was 91.4% in control group vs. 64% in the relaxin-treated group (p<0.05 by Student-Newman-Kuels test). The differences in the extent of wound healing were small among vehicle control and low dose of rhRlx treatment as well as PDGF (5 μg/wound/day for 5 days) treated mice.
At day 21-post surgery, the wounds were also excised and fixed in formalin prior to paraffin embedding. Sections from the middle of the wound were stained with Masson's trichrome and evaluated by two investigators. […] Inflammatory cell accumulation was present at the wound edges.
Neovascularization is a key component of granulation tissue formation. New blood vessel formation is stimulated by a variety of growth factors including bFGF, and VEGF. […] Immunohistochemical staining of the midsection of full thickness wounds using polyclonal antibody to von Willebrand factor VIII-related antigen was used to identify new blood vessels in the wounds.

For the compound `COC(=O)[C@@H](N)CCCNC(=N)N[N+](=O)[O-]` [L-NAME, Nω-nitro-L-arginine methyl ester, reference compound], the “renal vasodilation and hyperfiltration in the relaxin-treated rats” value in the assay on conscious rats (day 5 of porcine RLX infusion, L-NAME 2 μg/minute i.v.) is recorded as “completely abrogated”. Further, in the assay with conscious rats (relaxin-treated compared to vehicle infused rats), the “rise in MAP and ERVR, and reduction in GFR and ERPF” value is on record as “significantly greater”. On to TGF-β [reference compound], for which, in assay [1] (TGF-β (20 ng/ml)), the “expression of collagens, of control levels” value amounted to 484±67%. Further, in assay [1] (TGF-β treatment), the “Fibronectin expression, of control levels” value is listed as 360±5%. Regarding PDGF [reference compound], the “differences in the extent of wound healing vs vehicle control” value in the assay on db/db mice is given as “small”.

Values taken from patent US6723702B2, “Use of relaxin treat diseases related to vasoconstriction” (RAS Medical, Inc., priority 2000, dated 2004).
